Experimental findings from ChEMBL document CHEMBL1151160, “Challenges and rewards of research in marine natural products chemistry in Brazil” (J Nat Prod, 2004) are described below.

Structures are written as SMILES. In brackets after ≈: the same amount, converted by molar mass.

What all share (type): functional, cell-based
Experiment [1] relates to MCF7. In words: Inhibition of G2 check point in gamma-irradiated human MCF7 cells expressing mutant p53 after 16 hrs by flow cytometry. The note with it: MCF7, light or radiation study.
Experiment [2] deals with MCF7. Briefly: Cytotoxicity against human MCF7 cells after 16 hrs by Celltiter assay. The note with it: MCF7, 16 h.
A further experiment deals with HCT-116. Briefly: Cytotoxicity against human HCT116 cells.

The molecule `O=C1NC(=O)c2c1c1[nH]cnc1c1[nH]c3ccccc3c21` [GRANULATIMIDE] displayed an IC50 with MCF7 [1] of 1000 nM.
`O=C1NC(=O)c2c1c1c3ccccc3[nH]c1n1cncc21` [ISOGRANULATIMIDE]: the IC50 was 40000 nM in the experiment on MCF7 [2] and 1000 nM with MCF7 [1].
In the case of `CC(=O)OCC(C)CCC[C@@H](C)[C@H]1CC[C@H]2[C@@H]3C[C@@H](O)[C@@]4(O)C[C@@H](O[C@@H]5OC[C@@H](O)[C@@H](OC(C)=O)[C@@H]5O)CC[C@]4(C)[C@H]3CC[C@]12C` (stereo not given in full) [RIISEIN A], in the experiment on HCT-116, the IC50 came to 2 µg/mL (≈ 3.06 µM).
In the case of `CC(=O)OCC(C)CCC[C@@H](C)[C@H]1CC[C@H]2[C@@H]3C[C@@H](O)[C@@]4(O)C[C@@H](O[C@@H]5OC[C@@H](OC(C)=O)[C@@H](O)[C@@H]5O)CC[C@]4(C)[C@H]3CC[C@]12C` (stereo not given in full) [RIISEIN B], in the experiment with HCT-116, the 50% inhibitory concentration (IC50) was 2 µg/mL (≈ 3.06 µM).
